Assay results taken from patent US7919493B2, “Anititumoral ecteinascidin derivatives” (Pharma Mar, S.A., priority 2001, dated 2011).
≈ marks a conversion by molar mass, not a printed value.

What was measured:
Type in all cases: cell-based
[1] = system: MEL-28 (monolayer culture of a human melanoma); test: Cytotoxic activity screening, MEL-28 cells; details: Homo sapiens, SK-MEL-28, 72 h, three days of incubation, Crystal Violet, approximate IC50
Procedure: (§1) Cell Cultures. Cells were maintained in logarithmic phase of growth in Eagle's Minimum Essential Medium, with Earle's Balanced Salts, with 2.0 mM L-glutamine, with non-essential amino acids, without sodium bicarbonate (EMEM/neaa); supplemented with 10% Fetal Calf Serum (FCS), 10^−2 M sodium bicarbonate and 0.1 g/l penicillin-G+streptomycin sulfate.
(§2) A simple screening procedure has been carried out to determine and compare the antitumour activity of these compounds, using an adapted form of the method described by Bergeron et al (1984). The tumour cell line employed have been P-388 (suspension culture of a lymphoid neoplasm from DBA/2 mouse), A-549 (monolayer culture of a human lung carcinoma), HT-29 (monolayer culture of a human colon carcinoma) and MEL-28 (monolayer culture of a human melanoma).
(§3) A-549, HT-29 and MEL-28 were seeded into 16 mm wells at 2×10^4 cells per well in 1 ml aliquots of MEM 10FCS containing the indicated concentration of drug. A separate set of cultures without drug was seeded as control growth to ensure that cells remained in exponential phase of growth. All determinations were carried out in duplicate. After three days of incubation at 37° C., 10% CO2 in a 98% humid atmosphere, the wells were stained with 0.1% Crystal Violet. An approximately IC50 was determined by comparing the growth in wells with drug to the growth in wells control.

[2] = system: HT-29 (monolayer culture of a human colon carcinoma); test: Cytotoxic activity screening, HT-29 cells; details: Homo sapiens, HT-29, 72 h, three days of incubation, Crystal Violet, approximate IC50
Procedure: as §1
as §3, with “A” for “A-549, HT-29 and MEL-28 were seeded into 16 mm wells at 2×10^4 cells per well in 1 ml aliquots of MEM 10FCS containing the indicated concentration of drug. A”

[3] = system: P-388 (suspension culture of a lymphoid neoplasm from DBA/2 mouse); test: Cytotoxic activity screening, P-388 cells; details: Mus musculus, P388, 72 h, three days of incubation, approximate IC50 vs control growth
Procedure: as §1, §2
P-388 cell were seeded into 16 mm wells at 1×10^4 cells per well in 1 ml aliquots of MEM 5FCS containing the indicated concentration of drug. A separate set of cultures without drug was seeded as control growth to ensure that cells remained in exponential phase of growth. All determinations were carried out in duplicate.

DU-145 = test: Cytotoxic activity screening, DU-145 cells; details: Homo sapiens, DU-145, DU-145 cells
Procedure: [The source words this procedure for another cell line and reports this cell line under the same test.] as §1, §2
Examples of biological activities of the compounds described in the present application are in Table IV (IC50 (ng/mL)) on the following pages.

[4] = system: A-549 (monolayer culture of a human lung carcinoma); test: Cytotoxic activity screening, A-549 cells; details: Homo sapiens, A549, 72 h, three days of incubation, Crystal Violet, approximate IC50
Procedure: as §1
as §3, with “A” for “A-549, HT-29 and MEL-28 were seeded into 16 mm wells at 2×10^4 cells per well in 1 ml aliquots of MEM 10FCS containing the indicated concentration of drug. A”

SMILES | IC50 [1] [ng/mL] | IC50 [2] [ng/mL] | IC50 [3] [ng/mL] | IC50 (DU-145) [ng/mL] | IC50 [4] [ng/mL]
COc1c(C)cc2c(c1O)[C@@H]1C3[C@@H]4SC[C@H](NC(=O)CCC(=O)O)C(=O)OC[C@@H](c5c6c(c(C)c(OC(C)=O)c54)OCO6)N3[C@@H](O)[C@H](C2)N1C (stereo partly drawn) [Compound 4l] | 100 (≈ 140 nM) | 100 (≈ 140 nM) | 100 (≈ 140 nM) | 100 (≈ 140 nM) | 100 (≈ 140 nM)
COc1c(C)cc2c(c1O)[C@@H]1C3[C@@H]4SC[C@H](N(C)C)C(=O)OC[C@@H](c5c6c(c(C)c(OC(C)=O)c54)OCO6)N3[C@@H](C#N)[C@H](C2)N1C (stereo partly drawn) [Compound 3m] | 10 (≈ 15.4 nM) | 10 (≈ 15.4 nM) | 10 (≈ 15.4 nM) | 10 (≈ 15.4 nM) | 10 (≈ 15.4 nM)
COc1c(C)cc2c(c1O)[C@@H]1C3[C@@H]4SC[C@@H](OC(C)=O)C(=O)OC[C@@H](c5c6c(c(C)c(OC(C)=O)c54)OCO6)N3[C@@H](O)[C@H](C2)N1C (stereo partly drawn) [Compound 21a] | 1 (≈ 1.52 nM) | 1 (≈ 1.52 nM) | 0.5 (≈ 0.761 nM) | 1 (≈ 1.52 nM) | 1 (≈ 1.52 nM)
COc1c(C)cc2c(c1O)[C@@H]1C3[C@@H]4SC[C@@H](NC(C)=O)C(=O)OC[C@@H](c5c6c(c(C)c(OC(C)=O)c54)OCO6)N3[C@@H](C#N)[C@H](C2)N1C (stereo partly drawn) [Compound 3a] | 0.5 (≈ 0.752 nM) | 0.5 (≈ 0.752 nM) | 0.5 (≈ 0.752 nM) | 0.5 (≈ 0.752 nM) | 0.5 (≈ 0.752 nM)
CCCCCCCC(=O)N[C@H]1CS[C@@H]2c3c(OC(C)=O)c(C)c4c(c3[C@H](COC1=O)N1C2[C@H]2c3c(cc(C)c(OC)c3O)C[C@@H]([C@@H]1O)N2C)OCO4 (stereo partly drawn) [Compound 4e] | 1 (≈ 1.35 nM) | 1 (≈ 1.35 nM) | 1 (≈ 1.35 nM) | 1 (≈ 1.35 nM) | 1 (≈ 1.35 nM)
COc1c(C)cc2c(c1O)[C@@H]1C3[C@@H]4SC[C@H](NC(=O)C(NC(=O)C(C)NC(=O)/C=C/c5ccccc5)C(C)C)C(=O)OC[C@@H](c5c6c(c(C)c(OC(C)=O)c54)OCO6)N3[C@@H](O)[C@H](C2)N1C (stereo partly drawn) [Compound 4u] | 5 (≈ 5.47 nM) | 5 (≈ 5.47 nM) | 5 (≈ 5.47 nM) | 5 (≈ 5.47 nM) | 5 (≈ 5.47 nM)
COc1c(C)cc2c(c1O)[C@@H]1C3[C@@H]4SC[C@H](NC(=O)C(N)C(C)C)C(=O)OC[C@@H](c5c6c(c(C)c(OC(C)=O)c54)OCO6)N3[C@@H](C#N)[C@H](C2)N1C (stereo partly drawn) [Compound 3p] | 1 (≈ 1.39 nM) | 1 (≈ 1.39 nM) | 1 (≈ 1.39 nM) | 1 (≈ 1.39 nM) | 1 (≈ 1.39 nM)
COc1c(C)cc2c(c1O)[C@@H]1C3[C@@H]4SC[C@H](OC(=O)/C=C/c5ccccc5)C(=O)OC[C@@H](c5c6c(c(C)c(OC(C)=O)c54)OCO6)N3[C@@H](O)[C@H](C2)N1C (stereo partly drawn) [Compound 21h] | 1 (≈ 1.34 nM) | 1 (≈ 1.34 nM) | 1 (≈ 1.34 nM) | 1 (≈ 1.34 nM) | 1 (≈ 1.34 nM)
CCCCCCCC(=O)O[C@H]1CS[C@@H]2c3c(OC(C)=O)c(C)c4c(c3[C@H](COC1=O)N1C2[C@H]2c3c(cc(C)c(OC)c3O)C[C@@H]([C@@H]1O)N2C)OCO4 (stereo partly drawn) [Compound 21e] | 1 (≈ 1.35 nM) | 1 (≈ 1.35 nM) | 1 (≈ 1.35 nM) | 1 (≈ 1.35 nM) | 1 (≈ 1.35 nM)
COc1c(C)cc2c(c1O)[C@@H]1C3[C@@H]4SC[C@H](OS(C)(=O)=O)C(=O)OC[C@@H](c5c6c(c(C)c(OC(C)=O)c54)OCO6)N3[C@@H](O)[C@H](C2)N1C (stereo partly drawn) [Compound 21ll] | 1 (≈ 1.44 nM) | 1 (≈ 1.44 nM) | 1 (≈ 1.44 nM) | 1 (≈ 1.44 nM) | 1 (≈ 1.44 nM)
CC(=O)N[C@@H]1CS[C@@H]2c3c(OC(C)=O)c(C)c4c(c3[C@H](COC1=O)N1C2[C@H]2c3c(cc(C)c(O)c3O)C[C@@H]([C@@H]1C#N)N2C)OCO4 (stereo partly drawn) [Compound 26] |  | 100 (≈ 154 nM) |  |  | 100 (≈ 154 nM)
COc1c(C)cc2c(c1O)[C@@H]1C3[C@@H]4SC[C@H](NC(=O)C(NC(=O)C(C)N)C(C)C)C(=O)OC[C@@H](c5c6c(c(C)c(OC(C)=O)c54)OCO6)N3[C@@H](O)[C@H](C2)N1C (stereo partly drawn) [Compound 4s] | 1 (≈ 1.28 nM) | 1 (≈ 1.28 nM) | 1 (≈ 1.28 nM) | 1 (≈ 1.28 nM) | 1 (≈ 1.28 nM)
COc1c(C)cc2c(c1O)[C@@H]1C3[C@@H]4SC[C@H](O)C(=O)OC[C@@H](c5c6c(c(C)c(OC(C)=O)c54)OCO6)N3[C@@H](C#N)[C@H](C2)N1C (stereo partly drawn) [Compound 15] | 5 (≈ 8.02 nM) | 5 (≈ 8.02 nM) | 5 (≈ 8.02 nM) | 5 (≈ 8.02 nM) | 5 (≈ 8.02 nM)
COc1c(C)cc2c(c1O)[C@@H]1C3[C@@H]4SC[C@@H](NC(C)=O)C(=O)OC[C@@H](c5c6c(c(C)c(O)c54)OCO6)N3[C@@H](C#N)[C@H](C2)N1C (stereo partly drawn) [Compound 25] |  | 10 (≈ 16.1 nM) |  |  | 10 (≈ 16.1 nM)
COc1c(C)cc2c(c1O)[C@@H]1C3[C@@H]4SC[C@H](NC(=O)C(NC(=O)C(C)NC(C)=O)C(C)C)C(=O)OC[C@@H](c5c6c(c(C)c(OC(C)=O)c54)OCO6)N3[C@@H](O)[C@H](C2)N1C (stereo partly drawn) [Compound 4t] | 10 (≈ 12.1 nM) | 10 (≈ 12.1 nM) | 100 (≈ 121 nM) | 10 (≈ 12.1 nM) | 100 (≈ 121 nM)
COc1c(C)cc2c(c1O)[C@@H]1C3[C@@H]4SC[C@@H](O)C(=O)OC[C@@H](c5c6c(c(C)c(OC(C)=O)c54)OCO6)N3[C@@H](C#N)[C@H](C2)N1C (stereo partly drawn) [Compound 16*] |  | 10 (≈ 16 nM) |  |  | 10 (≈ 16 nM)
CCCN[C@H]1CS[C@@H]2c3c(OC(C)=O)c(C)c4c(c3[C@H](COC1=O)N1C2[C@H]2c3c(cc(C)c(OC)c3O)C[C@@H]([C@@H]1O)N2C)OCO4 (stereo partly drawn) [Compound 4o] |  | 1 (≈ 1.52 nM) |  |  | 1 (≈ 1.52 nM)
COc1c(C)cc2c(c1O)[C@@H]1C3[C@@H]4SC[C@H](NC(=O)c5ccccc5)C(=O)OC[C@@H](c5c6c(c(C)c(OC(C)=O)c54)OCO6)N3[C@@H](O)[C@H](C2)N1C (stereo partly drawn) [Compound 4g] | 0.5 (≈ 0.697 nM) | 0.5 (≈ 0.697 nM) | 0.1 (≈ 0.139 nM) | 0.5 (≈ 0.697 nM) | 0.5 (≈ 0.697 nM)
CCCCCCCC(=O)O[C@H]1CS[C@@H]2c3c(OC(C)=O)c(C)c4c(c3[C@H](COC1=O)N1C2[C@H]2c3c(cc(C)c(OC)c3O)C[C@@H]([C@@H]1C#N)N2C)OCO4 (stereo partly drawn) [Compound 17e] | 1 (≈ 1.33 nM) | 1 (≈ 1.33 nM) | 1 (≈ 1.33 nM) | 1 (≈ 1.33 nM) | 1 (≈ 1.33 nM)
COc1c(C)cc2c(c1O)[C@@H]1C3[C@@H]4SC[C@H](OC(=O)C(F)(F)F)C(=O)OC[C@@H](c5c6c(c(C)c(OC(C)=O)c54)OCO6)N3[C@@H](C#N)[C@H](C2)N1C (stereo partly drawn) [Compound 17b] | 5 (≈ 6.95 nM) | 5 (≈ 6.95 nM) | 5 (≈ 6.95 nM) | 5 (≈ 6.95 nM) | 5 (≈ 6.95 nM)
CCCCCCCC(=O)N[C@H]1CS[C@@H]2c3c(OC(C)=O)c(C)c4c(c3[C@H](COC1=O)N1C2[C@H]2c3c(cc(C)c(OC)c3O)C[C@@H]([C@@H]1C#N)N2C)OCO4 (stereo partly drawn) [Compound 3e] | 1 (≈ 1.34 nM) | 1 (≈ 1.34 nM) | 1 (≈ 1.34 nM) | 1 (≈ 1.34 nM) | 1 (≈ 1.34 nM)
COc1c(C)cc2c(c1O)[C@@H]1C3[C@@H]4SC[C@H](NC(=O)CCCCC5SCC6NC(=O)NC65)C(=O)OC[C@@H](c5c6c(c(C)c(OC(C)=O)c54)OCO6)N3[C@@H](C#N)[C@H](C2)N1C (stereo partly drawn) [Compound 3k] | 5 (≈ 5.89 nM) | 5 (≈ 5.89 nM) | 10 (≈ 11.8 nM) | 5 (≈ 5.89 nM) | 10 (≈ 11.8 nM)
COc1c(C)cc2c(c1O)[C@@H]1C3[C@@H]4SC[C@H](OS(C)(=O)=O)C(=O)OC[C@@H](c5c6c(c(C)c(OC(C)=O)c54)OCO6)N3[C@@H](C#N)[C@H](C2)N1C (stereo partly drawn) [Compound 17ll] | 1 (≈ 1.42 nM) | 1 (≈ 1.42 nM) | 1 (≈ 1.42 nM) |  | 1 (≈ 1.42 nM)
CCCCCCCCCCCCCCCC(=O)O[C@H]1CS[C@@H]2c3c(OC(C)=O)c(C)c4c(c3[C@H](COC1=O)N1C2[C@H]2c3c(cc(C)c(OC)c3O)C[C@@H]([C@@H]1O)N2C)OCO4 (stereo partly drawn) [Compound 21f] |  | > 1000 |  |  | > 1000
CC(=O)Oc1c(C)c2c(c3c1[C@H]1SC[C@H](N)C(=O)OC[C@@H]3N3C1[C@H]1c4c(cc(C)c(O)c4O)C[C@@H]([C@@H]3C#N)N1C)OCO2 (stereo partly drawn) [Compound 24] |  | 100 (≈ 164 nM) |  |  | 100 (≈ 164 nM)
CCCN[C@H]1CS[C@@H]2c3c(OC(C)=O)c(C)c4c(c3[C@H](COC1=O)N1C2[C@H]2c3c(cc(C)c(OC)c3O)C[C@@H]([C@@H]1C#N)N2C)OCO4 (stereo partly drawn) [Compound 3o] |  | 5 (≈ 7.52 nM) |  |  | 5 (≈ 7.52 nM)
